Reference: ChEMBL document CHEMBL4261612, “Designing dichlorobinaphthoquinone as a prooxidative anticancer agent based on hydrogen peroxide-responsive in situ production of hydroxyl radicals” (Eur J Med Chem, 2018)
Active and inactive are the calls of the source. The calls are words filed in the database; no cut-off is given here.

Tests used:
A549 [1] = test: Cytotoxicity against human A549 cells assessed as reduction in cell viability after 48 hrs by MTT assay; type: functional, cell-based; conditions: A549, 48 h
HepG2 = test: Cytotoxicity against human HepG2 cells assessed as reduction in cell viability after 48 hrs by MTT assay; type: functional, cell-based; conditions: HepG2, 48 h
L02 [2] = test: Cytotoxicity against human LO2 cells assessed as reduction in cell viability after 48 hrs by MTT assay; type: cell-based; conditions: for IC50: Homo sapiens, L02, 48 h
[3] = Induction of hydroxyl radicals generation assessed as methyl radical formation by measuring DMPO/CH3 radical level at 50 uM in presence of H2O2 measured after 5 mins by ESR spectral analysis based EPR secondary radical spin-trapping method; type: functional
A549 [4] = test: Induction of hydrogen peroxide-responsive hydroxyl radicals generation in human A549 cells at 7.5 uM pretreated for 3 hrs followed by 2 uM rhodamine nitroxide probe 3 addition and measured after 12 hrs by fluorescence imaging assay; type: functional, cell-based
A549 [5] = test: Induction of hydrogen peroxide-responsive hydroxyl radicals generation in human A549 cells at 7.5 uM pretreated for 3 hrs followed by 20 uM coumarin-cyanine probe 1 addition and measured after 0.5 hrs by fluorescence imaging assay; type: functional, cell-based
[6] = Induction of hydroxyl radicals generation assessed as DMPO/hydroxyl radical level at 50 uM in presence of H2O2 measured after 5 mins by ESR spectral analysis based EPR secondary radical spin-trapping method; type: functional
A549 [7] = test: Cytotoxicity against human A549 cells assessed as induction of hydrogen peroxide-responsive hydroxyl radicals-mediated cell killing by measuring cell viability at 62.5 uM preincubated for 3 hrs followed by 50 uM H2O2 treatment for 45 mins and measured after 48 hrs by MTT assay (reference value: 75.8%); type: functional
A549 [8] = test: Cytotoxicity against human A549 cells assessed as reduction in cell viability co-treated with alpha-tocopherol after 48 hrs by MTT assay; type: functional, cell-based
L02 [9] = test: Cytotoxicity against human LO2 cells assessed as induction of hydrogen peroxide-responsive hydroxyl radicals-mediated cell killing by measuring cell viability at 62.5 uM preincubated for 3 hrs followed by 100 uM H2O2 treatment for 45 mins and measured after 48 hrs by MTT assay; type: cell-based; conditions: l02, 62.5 µM
A549 [10] = test: Induction of hydrogen peroxide-responsive hydroxyl radicals generation in human A549 cells at 2.5 to 7.5 uM pretreated for 3 hrs followed by 2 uM rhodamine nitroxide probe 3 addition and measured after 12 hrs by fluorescence imaging assay; type: functional, cell-based
A549 [11] = test: Induction of hydrogen peroxide-responsive hydroxyl radicals generation in human A549 cells at 2.5 to 7.5 uM pretreated for 3 hrs followed by 20 uM coumarin-cyanine probe 1 addition and measured after 0.5 hrs by fluorescence imaging assay; type: functional, cell-based
A549 [12] = test: Induction of hydrogen peroxide-responsive hydroxyl radicals generation in human A549 cells at 7.5 uM pretreated for 3 hrs followed by 20 uM coumarin-cyanine probe 1 addition and measured after 0.5 hrs in presence of catalase by fluorescence imaging assay; type: functional, cell-based
L02 [13] = test: Induction of hydrogen peroxide-responsive hydroxyl radicals generation in human LO2 cells at 7.5 uM pretreated for 3 hrs followed by 20 uM coumarin-cyanine probe 1 addition and measured after 0.5 hrs in presence of catalase by fluorescence imaging assay; type: cell-based; conditions: l02, 0.5 h

Row | SMILES | IC50 (A549 [1]) | IC50 (HepG2) | IC50 (L02 [2]) | Activity [3] | Activity (A549 [4]) | Activity (A549 [5]) | Activity [6] | Activity (A549 [7]) | Activity (L02 [2]; human, l02, 48 h) | Activity (A549 [8]) | Activity (L02 [9]) | Activity (A549 [10]) | Activity (A549 [11]) | Activity (A549 [12]) | Activity (L02 [13])
1 | O=C1C=C(C2=CC(=O)c3ccccc3C2=O)C(=O)c2ccccc21 | > 10 µM | > 10 µM | > 10 µM | inactive | inactive | inactive | inactive | – | – | – | – | – | – | – | –
2 | O=C1C(O)=C(C2=C(Cl)C(=O)c3ccccc3C2=O)C(=O)c2ccccc21 | 4.25 µM | 4.59 µM | > 10 µM | Active | Active | Active | Active | – | – | – | – | – | – | – | –
3 | O=C1C(Cl)=C(C2=C(Cl)C(=O)c3ccccc3C2=O)C(=O)c2ccccc21 | 2.14 µM | 2.29 µM | > 10 µM | Active | – | – | Active | 52.6% | Non-Toxic | Active | Non-Toxic | Active | Active | inactive | Non-Toxic
